From publication PMC10326263 (Acta Pharmaceutica Sinica. B, 2023)

Assays:
[1] = test system: HIV-1 mutant strain E138K; experiment: microbe, parasite or virus in culture; type: cell-based; conditions: Human immunodeficiency virus 1, MT4, read-out: EC50 E138K
[2] = test system: HIV-1 mutant strain L100I; experiment: microbe, parasite or virus in culture; type: cell-based; conditions: Human immunodeficiency virus 1, MT4, read-out: EC50 L100I
[3] = test system: HIV-1 mutant strain RES056 (K103N + Y181C); experiment: microbe, parasite or virus in culture; type: cell-based; conditions: Human immunodeficiency virus 1, MT4, read-out: EC50 RES056
[4] = test system: HIV-1 mutant strain Y188L; experiment: microbe, parasite or virus in culture; type: cell-based; conditions: Human immunodeficiency virus 1, MT4, read-out: EC50 Y188L
[5] = test system: HIV-1 mutant strain F227L + V106A; experiment: microbe, parasite or virus in culture; type: cell-based; conditions: Human immunodeficiency virus 1, MT4, read-out: EC50 F227L + V106A
[6] = Cytotoxicity in mock-infected MT-4 cells, MTT method; type: cell-based; conditions: human, mock-infected MT-4 cells, CC50, mock-infected MT-4 cells
[7] = test system: HIV-1 WT strain (IIIB); experiment: Anti-HIV activity against WT HIV-1; conditions: WT HIV-1 IIIB
[8] = test system: HIV-1 mutant strain K103N; experiment: microbe, parasite or virus in culture; type: cell-based; conditions: Human immunodeficiency virus 1, MT4, read-out: EC50 K103N
[9] = test system: HIV-1 mutant strain Y181C; experiment: microbe, parasite or virus in culture; type: cell-based; conditions: Human immunodeficiency virus 1, MT4, read-out: EC50 Y181C

SMILES: Cc1cc(C)cc(S(=O)(=O)c2c(C(=O)NCCCCCNS(=O)(=O)c3ccc(F)cc3)[nH]c3ccc(Cl)cc23)c1 [R4L5, 5-Chloro-3-((3,5-dimethylphenyl)sulfonyl)-N-(5-((4-fluorophenyl)sulfonamido)pentyl)-1H-indole-2-carboxamide]
- EC50 [1]: 73 ± 20 nM
- EC50 [2]: 74 ± 10 nM
- EC50 [3]: > 31200 nM
- EC50 [4]: 1670 ± 350 nM
- EC50 [5]: 380 ± 17 nM
- CC50 at 5 days [6]: 144000 ± 13200 nM
- SI IIIB (CC50/EC50 ratio) [7]: 7527
- EC50 [8]: 510 ± 210 nM
- EC50 [9]: 180 ± 17 nM

SMILES: Cc1cc(C)cc(S(=O)(=O)c2c(C(=O)NCCNS(=O)(=O)c3ccc(C#N)cc3)[nH]c3ccc(Cl)cc23)c1 [R5L2, 5-Chloro-3-((3,5-dimethylphenyl)sulfonyl)-N-(2-((4-cyanophenyl)sulfonamido)ethyl)-1H-indole-2-carboxamide]
- EC50 [1]: 1260 nM
- EC50 [2]: 770 ± 35 nM
- EC50 [3]: 3370 ± 210 nM
- EC50 [4]: 3070 ± 120 nM
- EC50 [5]: 1750 ± 53 nM
- CC50 at 5 days [6]: 23600 ± 580 nM
- SI IIIB (CC50/EC50 ratio) [7]: 362
- EC50 [8]: 840 ± 35 nM
- EC50 [9]: 890 ± 18 nM

SMILES: Cc1cc(C)cc(S(=O)(=O)c2c(C(=O)NCCCNS(=O)(=O)c3ccc(C#N)cc3)[nH]c3ccc(Cl)cc23)c1 [R5L3, 5-Chloro-3-((3,5-dimethylphenyl)sulfonyl)-N-(3-((4-cyanophenyl)sulfonamido)propyl)-1H-indole-2-carboxamide]
- EC50 [1]: 270 ± 17 nM
- EC50 [2]: 330 ± 34 nM
- EC50 [3]: 4090 nM
- EC50 [4]: 3340 ± 17 nM
- EC50 [5]: 1220 ± 51 nM
- CC50 at 5 days [6]: 22600 ± 890 nM
- SI IIIB (CC50/EC50 ratio) [7]: 732
- EC50 [8]: 920 ± 410 nM
- EC50 [9]: 980 ± 51 nM

SMILES: Cc1cc(C)cc(S(=O)(=O)c2c(C(=O)NCCCCNS(=O)(=O)c3ccc(C#N)cc3)[nH]c3ccc(Cl)cc23)c1 [R5L4, 5-Chloro-3-((3,5-dimethylphenyl)sulfonyl)-N-(4-((4-cyanophenyl)sulfonamido)butyl)-1H-indole-2-carboxamide]
- EC50 [1]: 32 ± 18 nM
- EC50 [2]: 25 ± 2 nM
- EC50 [3]: > 4580 nM
- EC50 [4]: 150 ± 10 nM
- EC50 [5]: 82 ± 35 nM
- CC50 at 5 days [6]: 4580 ± 3530 nM
- SI IIIB (CC50/EC50 ratio) [7]: 279
- EC50 [8]: 67 ± 5 nM
- EC50 [9]: 54 ± 2 nM

SMILES: Cc1cc(C)cc(S(=O)(=O)c2c(C(=O)NCCCCCNS(=O)(=O)c3ccc(C#N)cc3)[nH]c3ccc(Cl)cc23)c1 [R5L5, 5-Chloro-3-((3,5-dimethylphenyl)sulfonyl)-N-(5-((4-cyanophenyl)sulfonamido)pentyl)-1H-indole-2-carboxamide]
- EC50 [1]: 160 ± 16 nM
- EC50 [2]: 77 ± 23 nM
- EC50 [3]: 11900 ± 4900 nM
- EC50 [4]: 1700 ± 520 nM
- EC50 [5]: 340 ± 82 nM
- CC50 at 5 days [6]: > 204000 nM
- SI IIIB (CC50/EC50 ratio) [7]: >6158
- EC50 [8]: 560 ± 130 nM
- EC50 [9]: 210 nM

SMILES: Cc1cc(C)cc(S(=O)(=O)c2c(C(=O)NCCNS(=O)(=O)c3ccc(Br)cc3)[nH]c3ccc(Cl)cc23)c1 [R6L2, 5-Chloro-3-((3,5-dimethylphenyl)sulfonyl)-N-(2-((4-bromophenyl)sulfonamido)ethyl)-1H-indole-2-carboxamide]
- EC50 [1]: 1270 ± 110 nM
- EC50 [2]: 750 ± 64 nM
- EC50 [3]: ≥ 12200 nM
- EC50 [4]: ≥ 33700 nM
- EC50 [5]: 2730 ± 480 nM
- CC50 at 5 days [6]: 151000 ± 19300 nM
- SI IIIB (CC50/EC50 ratio) [7]: 964
- EC50 [8]: 950 ± 160 nM
- EC50 [9]: 1010 ± 32 nM

SMILES: Cc1cc(C)cc(S(=O)(=O)c2c(C(=O)NCCCNS(=O)(=O)c3ccc(Br)cc3)[nH]c3ccc(Cl)cc23)c1 [R6L3, 5-Chloro-3-((3,5-dimethylphenyl)sulfonyl)-N-(3-((4-bromophenyl)sulfonamido)propyl)-1H-indole-2-carboxamide]
- EC50 [1]: 470 ± 200 nM
- EC50 [2]: 780 ± 140 nM
- EC50 [3]: > 88100 nM
- EC50 [4]: 5260 ± 1040 nM
- EC50 [5]: 1480 ± 110 nM
- CC50 at 5 days [6]: 88100 ± 18100 nM
- SI IIIB (CC50/EC50 ratio) [7]: 645
- EC50 [8]: 1040 ± 190 nM
- EC50 [9]: 1320 ± 190 nM

SMILES: Cc1cc(C)cc(S(=O)(=O)c2c(C(=O)NCCCCNS(=O)(=O)c3ccc(Br)cc3)[nH]c3ccc(Cl)cc23)c1 [R6L4, 5-Chloro-3-((3,5-dimethylphenyl)sulfonyl)-N-(4-((4-bromophenyl)sulfonamido)butyl)-1H-indole-2-carboxamide]
- EC50 [1]: 780 ± 540 nM
- EC50 [2]: 320 ± 150 nM
- EC50 [3]: > 26900 nM
- EC50 [4]: 1000 ± 150 nM
- EC50 [5]: 510 ± 92 nM
- CC50 at 5 days [6]: 26900 ± 16900 nM
- SI IIIB (CC50/EC50 ratio) [7]: 347
- EC50 [8]: 690 ± 110 nM
- EC50 [9]: 600 ± 31 nM

SMILES: Cc1cc(C)cc(S(=O)(=O)c2c(C(=O)NCCCCCNS(=O)(=O)c3ccc(Br)cc3)[nH]c3ccc(Cl)cc23)c1 [R6L5, 5-Chloro-3-((3,5-dimethylphenyl)sulfonyl)-N-(5-((4-bromophenyl)sulfonamido)pentyl)-1H-indole-2-carboxamide]
- EC50 [1]: 320 ± 15 nM
- EC50 [2]: 120 ± 39 nM
- EC50 [3]: > 37900 nM
- EC50 [4]: 2470 ± 30 nM
- EC50 [5]: 680 ± 75 nM
- CC50 at 5 days [6]: 37900 ± 6320 nM
- SI IIIB (CC50/EC50 ratio) [7]: 501
- EC50 [8]: 740 ± 90 nM
- EC50 [9]: 350 nM

SMILES: Cc1cc(C)cc(S(=O)(=O)c2c(C(=O)NCCNS(=O)(=O)c3ccc(Cl)cc3)[nH]c3ccc(Cl)cc23)c1 [R7L2, 5-Chloro-3-((3,5-dimethylphenyl)sulfonyl)-N-(2-((4-chlorophenyl)sulfonamido)ethyl)-1H-indole-2-carboxamide]
- EC50 [1]: 360 ± 17 nM
- EC50 [2]: 170 ± 41 nM
- EC50 [3]: 3090 ± 500 nM
- EC50 [4]: 2660 ± 170 nM
- EC50 [5]: 1040 ± 350 nM
- CC50 at 5 days [6]: 175000 ± 42800 nM
- SI IIIB (CC50/EC50 ratio) [7]: 13,010
- EC50 [8]: 220 nM
- EC50 [9]: 310 ± 160 nM

SMILES: Cc1cc(C)cc(S(=O)(=O)c2c(C(=O)NCCCNS(=O)(=O)c3ccc(Cl)cc3)[nH]c3ccc(Cl)cc23)c1 [R7L3, 5-Chloro-3-((3,5-dimethylphenyl)sulfonyl)-N-(3-((4-chlorophenyl)sulfonamido)propyl)-1H-indole-2-carboxamide]
- EC50 [1]: 610 ± 120 nM
- EC50 [2]: 98 ± 52 nM
- EC50 [3]: 9000 ± 510 nM
- EC50 [4]: 190 ± 190 nM
- EC50 [5]: 2610 ± 120 nM
- CC50 at 5 days [6]: > 211000 nM
- SI IIIB (CC50/EC50 ratio) [7]: >12,913
- EC50 [8]: 220 nM
- EC50 [9]: 570 ± 250 nM

SMILES: Cc1cc(C)cc(S(=O)(=O)c2c(C(=O)NCCCCNS(=O)(=O)c3ccc(Cl)cc3)[nH]c3ccc(Cl)cc23)c1 [R7L4, 5-Chloro-3-((3,5-dimethylphenyl)sulfonyl)-N-(4-((4-chlorophenyl)sulfonamido)butyl)-1H-indole-2-carboxamide]
- EC50 [1]: 51 ± 18 nM
- EC50 [2]: 74 ± 21 nM
- EC50 [3]: > 89300 nM
- EC50 [4]: 1530 ± 720 nM
- EC50 [5]: 260 nM
- CC50 at 5 days [6]: 89300 ± 17800 nM
- SI IIIB (CC50/EC50 ratio) [7]: 10,389
- EC50 [8]: 130 ± 48 nM
- EC50 [9]: 180 ± 16 nM

SMILES: Cc1cc(C)cc(S(=O)(=O)c2c(C(=O)NCCCCCNS(=O)(=O)c3ccc(Cl)cc3)[nH]c3ccc(Cl)cc23)c1 [R7L5, 5-Chloro-3-((3,5-dimethylphenyl)sulfonyl)-N-(5-((4-chlorophenyl)sulfonamido)pentyl)-1H-indole-2-carboxamide]
- EC50 [1]: 52 ± 9 nM
- EC50 [2]: 61 ± 3.2 nM
- EC50 [3]: > 115000 nM
- EC50 [4]: 3140 ± 950 nM
- EC50 [5]: 370 ± 110 nM
- CC50 at 5 days [6]: 115000 ± 8890 nM
- SI IIIB (CC50/EC50 ratio) [7]: 11,132
- EC50 [8]: 430 ± 140 nM
- EC50 [9]: 190 nM

SMILES: Cc1cc(C)cc(S(=O)(=O)c2c(C(=O)NCCNS(=O)(=O)c3cccs3)[nH]c3ccc(Cl)cc23)c1 [R8L2, 5-Chloro-3-((3,5-dimethylphenyl)sulfonyl)-N-(2-(thiophene-2-sulfonamido)ethyl)-1H-indole-2-carboxamide]
- EC50 [1]: 1200 ± 18 nM
- EC50 [2]: 800 ± 94 nM
- EC50 [3]: 4630 ± 1540 nM
- EC50 [4]: 6240 ± 650 nM
- EC50 [5]: 1810 ± 180 nM
- CC50 at 5 days [6]: 161000 ± 50300 nM
- SI IIIB (CC50/EC50 ratio) [7]: 1558
- EC50 [8]: 1180 ± 91 nM
- EC50 [9]: 1000 ± 91 nM

SMILES: Cc1cc(C)cc(S(=O)(=O)c2c(C(=O)NCCCNS(=O)(=O)c3cccs3)[nH]c3ccc(Cl)cc23)c1 [R8L3, 5-Chloro-3-((3,5-dimethylphenyl)sulfonyl)-N-(3-(thiophene-2-sulfonamido)propyl)-1H-indole-2-carboxamide]
- EC50 [1]: 280 ± 18 nM
- EC50 [2]: 500 ± 140 nM
- EC50 [3]: 5380 ± 1290 nM
- EC50 [4]: 3540 ± 340 nM
- EC50 [5]: 1650 ± 270 nM
- CC50 at 5 days [6]: 121000 ± 33400 nM
- SI IIIB (CC50/EC50 ratio) [7]: 2105
- EC50 [8]: 1030 ± 190 nM
- EC50 [9]: 1060 ± 18 nM

SMILES: Cc1cc(C)cc(S(=O)(=O)c2c(C(=O)NCCCCNS(=O)(=O)c3cccs3)[nH]c3ccc(Cl)cc23)c1 [R8L4, 5-Chloro-3-((3,5-dimethylphenyl)sulfonyl)-N-(4-(thiophene-2-sulfonamido)butyl)-1H-indole-2-carboxamide]
- EC50 [1]: 190 ± 17 nM
- EC50 [2]: 130 ± 59 nM
- EC50 [3]: > 86500 nM
- EC50 [4]: 1050 ± 35 nM
- EC50 [5]: 360 ± 35 nM
- CC50 at 5 days [6]: 86500 ± 11800 nM
- SI IIIB (CC50/EC50 ratio) [7]: 1953
- EC50 [8]: 470 ± 69 nM
- EC50 [9]: 540 nM

SMILES: Cc1cc(C)cc(S(=O)(=O)c2c(C(=O)NCCCCCNS(=O)(=O)c3cccs3)[nH]c3ccc(Cl)cc23)c1 [R8L5, 5-Chloro-3-((3,5-dimethylphenyl)sulfonyl)-N-(5-(thiophene-2-sulfonamido)pentyl)-1H-indole-2-carboxamide]
- EC50 [1]: 200 ± 51 nM
- EC50 [2]: 170 ± 17 nM
- EC50 [3]: > 43300 nM
- EC50 [4]: 2710 ± 130 nM
- EC50 [5]: 1260 ± 340 nM
- CC50 at 5 days [6]: 35400 ± 1050 nM
- SI IIIB (CC50/EC50 ratio) [7]: 526
- EC50 [8]: 1230 ± 220 nM
- EC50 [9]: 730 ± 340 nM
